Calls of active or inactive are those of the source. The rule behind the calls is not given here.

The nature of assay [1]: Antagonist activity at rat AMPA receptor expressed in Xenopus oocytes assessed as reduction of kainate-induced membrane current at 100 uM relative to kainate. The format is functional, Oocyte. Also on record: scale not given: the % may be the effect or the level left.
The nature of assay [2]: Antagonist activity at rat KA receptor expressed in Xenopus oocytes assessed as reduction of kainate-induced membrane current at 100 uM relative to kainate. The format is functional, Oocyte. Also on record: scale not given: the % may be the effect or the level left.
Assay [3] deals with Oocyte. Briefly: Agonist activity at rat AMPA receptor expressed in Xenopus oocytes at 100 uM. The format is functional, cell-based.
The subject of assay [4] is Oocyte. Briefly: Agonist activity at rat KA receptor expressed in Xenopus oocytes at 100 uM. The format is functional, cell-based.

Turning to `N[C@@H](C(=O)O)[C@H](O)[C@@]1(C(=O)O)CC[C@H](c2ccccc2)N1`, the Activity in assay [1] and in assay [2] was 72% each time. Further, the outcome in assay [3] and in assay [4] was inactive.

For `Cc1ccccc1[C@H]1CC[C@](C(=O)O)([C@@H](O)[C@@H](N)C(=O)O)N1`, the Activity in assay [1] and in assay [2] was 49% each time. In addition, the outcome in assay [3] and in assay [4] was inactive.

Regarding `Cc1cccc([C@H]2CC[C@](C(=O)O)([C@@H](O)[C@@H](N)C(=O)O)N2)c1`, the Activity in assay [1] and in assay [2] was 75% in each case. Also, the result in assay [3] and in assay [4] was inactive.

Take `Cc1ccc([C@H]2CC[C@](C(=O)O)([C@@H](O)[C@@H](N)C(=O)O)N2)cc1`: the Activity in assay [1] and in assay [2] was 83% each time. In addition, the outcome in assay [3] and in assay [4] was inactive.

For the origin of these results see ChEMBL document CHEMBL1139270, “Design, synthesis, and biological evaluation of a scaffold for iGluR ligands based on the structure of (-)-kaitocephalin” (2009).
